Consider 24 compounds from ChEMBL document CHEMBL3217684, “Synthesis and cytotoxicity evaluation of regioisomeric substituted N-phenyl-3-(chrom-4-one-3-yl)-isoxazolidines: induction of apoptosis through a mitochondrial-dependent pathway” (Medchemcomm, 2013).

For test [1], the system named is PC-3. Put plainly: Cytotoxicity against human PC3 cells assessed as inhibition of cell proliferation after 48 hrs by sulforhodamine-B assay. The note with it: PC-3, 48 h. It is filed as functional, cell-based. On the technique in general: The SRB assay estimates cell density from bound dye.
In test [2] the test system is A549. The test can be described thus: Cytotoxicity against human A549 cells assessed as inhibition of cell proliferation after 48 hrs by sulforhodamine-B assay. Format: functional, cell-based. Particulars: A549, 48 h.
Test [3] relates to THP-1. The test can be described thus: Cytotoxicity against human THP1 cells assessed as inhibition of cell proliferation after 48 hrs by sulforhodamine-B assay. It is filed as functional, cell-based. Particulars: THP-1, 48 h.
Test [4] has as its system Caco-2. Put plainly: Cytotoxicity against human Caco2 cells assessed as inhibition of cell proliferation after 48 hrs by sulforhodamine-B assay. Format: functional, cell-based. The note with it: Caco-2, 48 h.
Test [5] relates to HL-60. The test can be described thus: Induction of apoptosis in human HL60 cells assessed as mitochondrial damage and loss of mitochondrial membrane potential after 24 hrs by Rhodamine 123 staining based flow cytometry. Format: functional, cell-based. On the technique in general: In flow cytometry, cells or beads pass a laser one at a time.
Test [6] relates to HL-60. Put plainly: Induction of apoptosis in human HL60 cells assessed as loss of mitochondrial membrane potential at 50 uM after 24 hrs by Rhodamine 123 staining based flow cytometry (reference value: 7%). Format: functional.
The test system of test [7] is HL-60. The test can be described thus: Induction of apoptosis in human HL60 cells assessed as intact mitochondrial membrane potential at 30 uM after 24 hrs by Rhodamine 123 staining based flow cytometry (reference value: 93.6%). It is filed as functional.
Test [8] has as its system HL-60. Put plainly: Induction of apoptosis in human HL60 cells assessed as accumulation of DNA at sub-G0 phase at 100 uM after 24 hrs by propidium iodide staining based flow cytometry (Rvb= 4.2%). It is filed as functional.
The test system of test [9] is HL-60. The test can be described thus: Induction of apoptosis in human HL60 cells assessed as intact mitochondrial membrane potential at 50 uM after 24 hrs by Rhodamine 123 staining based flow cytometry (reference value: 93.6%). It is filed as functional.
Test [10] has as its system HL-60. Put plainly: Induction of apoptosis in human HL60 cells assessed as condensation and fragmentation of nuclei at 50 to 100 uM after 24 hrs by DAPI staining based fluorescence microscopic analysis. It is filed as functional, cell-based.
The test system of test [11] is HL-60. Put plainly: Induction of apoptosis in human HL60 cells assessed as accumulation of DNA at sub-G0 phase at 10 uM after 24 hrs by propidium iodide staining based flow cytometry (Rvb= 4.2%). It is filed as functional.
The test system of test [12] is HL-60. Put plainly: Induction of apoptosis in human HL60 cells assessed as intact mitochondrial membrane potential at 10 uM after 24 hrs by Rhodamine 123 staining based flow cytometry (reference value: 93.6%). It is filed as functional.
Test [13] concerns HL-60. The test can be described thus: Induction of apoptosis in human HL60 cells assessed as DNA fragmentation at 50 uM after 24 hrs by agarose gel electrophoresis analysis. Format: functional, cell-based.
Test [14] concerns HL-60. Put plainly: Induction of apoptosis in human HL60 cells assessed as accumulation of DNA at sub-G0 phase at 50 uM after 24 hrs by propidium iodide staining based flow cytometry (Rvb= 4.2%). It is filed as functional.
In test [15] the test system is HL-60. Put plainly: Induction of apoptosis in human HL60 cells assessed as accumulation of DNA at sub-G0 phase at 30 uM after 24 hrs by propidium iodide staining based flow cytometry (Rvb= 4.2%). It is filed as functional.
For test [16], the system named is HL-60. The test can be described thus: Induction of apoptosis in human HL60 cells assessed as loss of mitochondrial membrane potential at 10 uM after 24 hrs by Rhodamine 123 staining based flow cytometry (reference value: 7%). Format: functional.
Test [17] has as its system HL-60. The test can be described thus: Induction of apoptosis in human HL60 cells assessed as loss of mitochondrial membrane potential at 30 uM after 24 hrs by Rhodamine 123 staining based flow cytometry (reference value: 7%). Format: functional.
The subject of test [18] is HL-60. The test can be described thus: Induction of apoptosis in human HL60 cells assessed as loss of mitochondrial membrane potential at 1 uM after 24 hrs by Rhodamine 123 staining based flow cytometry (reference value: 7%). Format: functional.
Test [19] concerns HL-60. The test can be described thus: Induction of apoptosis in human HL60 cells assessed as intact mitochondrial membrane potential at 1 uM after 24 hrs by Rhodamine 123 staining based flow cytometry (reference value: 93.6%). Format: functional.
For test [20], the system named is HL-60. The test can be described thus: Induction of apoptosis in human HL60 cells assessed as accumulation of DNA at sub-G0 phase at 1 uM after 24 hrs by propidium iodide staining based flow cytometry (Rvb= 4.2%). Format: functional.

In general, IC50 refers to the concentration that gives 50% inhibition.

The source made the active and inactive calls. The rule behind the calls is not given here.

With `Cc1ccc2occ([C@@H]3[C@H]4C(=O)N(c5ccccc5)C(=O)[C@H]4ON3c3ccccc3)c(=O)c2c1`, the IC50 in test [1] was 11.1 µM; in test [2] it was above 60 µM; in [3], above 60 µM; in test [4], above 60 µM.
For the compound `O=c1c([C@@H]2C[C@H](c3ccccc3)ON2c2ccccc2)coc2ccc(F)cc12` (relative stereo), the IC50 was 49 µM in [1], 51.5 µM in [2], 54.7 µM in test [3] and 60 µM in test [4].
In the case of `O=c1c([C@@H]2C[C@H](c3ccccc3)ON2c2ccccc2)coc2ccc(Br)cc12` (relative stereo), the IC50 is 60 µM in [1], 51 µM in test [2], 60 µM in test [3] and above 60 µM in test [4].
As to `O=c1c([C@@H]2C[C@H](c3ccccc3)ON2c2ccccc2)coc2cc(Cl)c(Cl)cc12` (relative stereo), the IC50 in test [1] was 32 µM; in test [2], 43 µM; in test [3], 38 µM; in test [4], 23.5 µM.
For the compound `CCO[C@H]1C[C@@H](c2coc3ccc(F)cc3c2=O)N(c2ccccc2)O1` (relative stereo), the IC50 in test [1] is 31.7 µM; in [2], 26.4 µM; in [3], above 60 µM; in test [4], above 60 µM.
With `CCO[C@H]1C[C@@H](c2coc3ccc(Br)cc3c2=O)N(c2ccccc2)O1` (relative stereo), the IC50 in test [1] is above 60 µM; in [2], 21.5 µM; in [3] it was above 60 µM; in [4], above 60 µM.
For `CCO[C@H]1C[C@@H](c2coc3cc(Cl)c(Cl)cc3c2=O)N(c2ccccc2)O1` (relative stereo), the IC50 is above 60 µM in test [1], 19.8 µM in test [2], 16.5 µM in test [3] and above 60 µM in test [4].
Consider `O=c1c([C@@H]2C[C@H](c3ccncc3)ON2c2ccccc2)coc2ccccc12` (relative stereo), for which the IC50 stood at 46 µM in [1], 19.3 µM in [2], 16.4 µM in [3] and 37 µM in [4].
Consider `COC(=O)[C@@]1(C)C[C@@H](c2coc3ccc(F)cc3c2=O)N(c2ccccc2)O1` (relative stereo), for which the IC50 in [1] is 31.3 µM; in [2], 20.3 µM; in [3], 47 µM; in test [4], 29.5 µM.
Turning to `COC(=O)[C@@]1(C)C[C@@H](c2coc3ccc(Br)cc3c2=O)N(c2ccccc2)O1` (relative stereo), the IC50 is above 60 µM in test [1], 9.9 µM in test [2], 14.7 µM in test [3] and above 60 µM in test [4].
In the case of `COC(=O)[C@@]1(C)C[C@@H](c2coc3ccc(C)cc3c2=O)N(c2ccccc2)O1` (relative stereo), the Activity entry is “Dose-dependent effect” in test [5]; 53.9% in test [6]; 62.9% in [7]; 50.2% in test [8]; 45.7% in [9]; 4.9% in [11]. Also, the Activity in test [12] amounted to 92%; in test [14], 44.6%; in test [15], 41.6%; in test [16], 7.9%; in [17], 36.6%. The IC50 in test [1] was above 60 µM; in test [2] it was 0.7 µM; in [3], 7.3 µM; in [4], 19.7 µM. Also, the outcome in test [10] and in [13] was Active.
Regarding `O=C1[C@H]2[C@H](ON(c3ccccc3)[C@@H]2c2coc3ccc(F)cc3c2=O)C(=O)N1c1ccccc1` (relative stereo), the IC50 is above 60 µM in [1], 13.5 µM in [2], 43.5 µM in [3] and above 60 µM in [4].
On to `O=C1[C@H]2[C@H](ON(c3ccccc3)[C@@H]2c2coc3ccc(Br)cc3c2=O)C(=O)N1c1ccccc1` (relative stereo), for which the IC50 in [1] came to 13.3 µM; in [2] it was 17 µM; in test [3] it was 22.3 µM; in test [4] it was 20.3 µM.
For `O=c1c([C@@H]2C[C@H](c3ccccc3)ON2c2ccccc2)coc2ccccc12` (relative stereo), the IC50 in test [1], in test [2], in test [3] and in test [4] was above 60 µM throughout.
Regarding `Cc1ccc2occ([C@@H]3C[C@H](c4ccccc4)ON3c3ccccc3)c(=O)c2c1` (relative stereo), the IC50 is above 60 µM in test [1], 49 µM in [2], above 60 µM in [3] and 31.7 µM in test [4].
Consider `CCO[C@H]1C[C@@H](c2coc3ccccc3c2=O)N(c2ccccc2)O1` (relative stereo), for which the IC50 in test [1], in test [2], in test [3] and in test [4] was above 60 µM in each case.
Take `CCO[C@H]1C[C@@H](c2coc3ccc(C)cc3c2=O)N(c2ccccc2)O1` (relative stereo): the IC50 stood at 39 µM in [1], 20.7 µM in test [2], 41 µM in [3] and 31 µM in [4].
In the same order, the values of `COC(=O)[C@H]1C[C@@H](c2coc3ccccc3c2=O)N(c2ccccc2)O1` (relative stereo) are above 60 µM, above 60 µM, above 60 µM and above 60 µM.
Consider `COC(=O)[C@H]1C[C@@H](c2coc3ccc(Cl)cc3c2=O)N(c2ccccc2)O1` (relative stereo), for which the IC50 in test [1], in [2], in test [3] and in test [4] was above 60 µM throughout.
As to `NC(=O)[C@H]1C[C@@H](c2coc3ccccc3c2=O)N(c2ccccc2)O1` (relative stereo), the IC50 in test [1], in test [2], in test [3] and in [4] was above 60 µM in each case.
With `N#C[C@H]1C[C@@H](c2coc3ccc(Cl)cc3c2=O)N(c2ccccc2)O1` (relative stereo), the IC50 stood at 41 µM in test [1], 40 µM in test [2], 35 µM in [3] and 39 µM in test [4].
In the case of `Cc1ccc2occ([C@@H]3C[C@H](OCC(C)C)ON3c3ccccc3)c(=O)c2c1` (relative stereo), the IC50 was 37.7 µM in test [1], 17.1 µM in [2], 21.5 µM in [3] and above 60 µM in test [4].
`CC[C@@]1(O)C(=O)OCc2c1cc1n(c2=O)Cc2cc3ccccc3nc2-1` [CAMPTOTHECIN]: the Activity in test [18] is 53.3%; in [19] it was 46.1%; in test [20], 61.8%.
Turning to `CO[C@@]12[C@H](COC(N)=O)C3=C(C(=O)C(C)=C(N)C3=O)N1C[C@@H]1N[C@@H]12` [MITOMYCIN], the IC50 in [2] was 0.4 µM.
